From the supplement of paper PMC10307832

Assays:
Assay in all cases: relative viability (nuclei count vs DMSO), 5 days (fraction); higher = more cells survive
NCI-H1666 = tested on: NCI-H1666
Procedure, shortened: (§1)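 Relative viability divides the nuclei count in treated wells by that in vehicle wells. Lung cancer cell lines were seeded in 1536-well plates, dosed by pin tool the next day, and fixed and stained after 5 days in one step with final 0.05% Triton X-100, 1% formaldehyde and 1 ug/ml Hoechst. Dosing was a single drug or a fixed anchor-drug dose plus five library-drug doses (not always all listed) in √10 steps, and values are medians of duplicate plates imaged at 4×.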

NCI-H1993 = tested on: NCI-H1993
Procedure, shortened: as §1

NCI-H2085 = tested on: NCI-H2085
Procedure, shortened: as §1

NCI-H2228 = tested on: NCI-H2228
Procedure, shortened: as §1

NCI-H2347 = tested on: NCI-H2347
Procedure, shortened: as §1

NCI-H23 = tested on: NCI-H23
Procedure, shortened: as §1

NCI-H322M = tested on: NCI-H322M
Procedure, shortened: as §1

NCI-H520 = tested on: NCI-H520
Procedure, shortened: as §1

NCI-H647 = tested on: NCI-H647
Procedure, shortened: as §1

NCI-H661 = tested on: NCI-H661
Procedure, shortened: as §1

NCI-H838 = tested on: NCI-H838
Procedure, shortened: as §1

For `O=C(O)CCCCC(CCSCc1ccccc1)SCc1ccccc1` (configuration not stated) [CPI-613] + CC(C)C[C@H](NC(=O)[C@H](Cc1ccccc1)NC(=O)c1cnccn1)B(O)O [Bortezomib] (partner 0.002 µM), the relative viability (NCI-H1666; first compound 50 µM) was 0.757, the relative viability (NCI-H1666; first compound 158.11 µM) was 0.175 and the relative viability (NCI-H1666; first compound 500 µM) was 0.0891. The relative viability (NCI-H1993; first compound 5 µM) was 0.953, the relative viability (NCI-H1993; first compound 15.81 µM) was 0.918 and the relative viability (NCI-H1993; first compound 50 µM) was 0.943. For the same molecule, the relative viability (NCI-H1993; first compound 158.11 µM) was 0.717, the relative viability (NCI-H1993; first compound 500 µM) was 0.363 and the relative viability (NCI-H2085; first compound 5 µM) was 0.984. For the same molecule, the relative viability (NCI-H2085; first compound 15.81 µM) was 0.847, the relative viability (NCI-H2085; first compound 50 µM) was 0.995 and the relative viability (NCI-H2085; first compound 158.11 µM) was 0.873. The relative viability (NCI-H2085; first compound 500 µM) was 0.194, the relative viability (NCI-H2228; first compound 5 µM) was 0.918 and the relative viability (NCI-H2228; first compound 15.81 µM) was 1.04. The relative viability (NCI-H2228; first compound 50 µM) was 1.07, the relative viability (NCI-H2228; first compound 158.11 µM) was 0.217 and the relative viability (NCI-H2228; first compound 500 µM) was 0.0287. The relative viability (NCI-H2347; first compound 5 µM) was 0.606, the relative viability (NCI-H2347; first compound 15.81 µM) was 0.833 and the relative viability (NCI-H2347; first compound 50 µM) was 1.2. It also gave a relative viability (NCI-H2347; first compound 500 µM) of 1, a relative viability (NCI-H23; first compound 5 µM) of 0.958 and a relative viability (NCI-H23; first compound 15.81 µM) of 1.1. It also gave a relative viability (NCI-H23; first compound 50 µM) of 0.895, a relative viability (NCI-H23; first compound 158.11 µM) of 0.175 and a relative viability (NCI-H23; first compound 500 µM) of 0.0214. For the same molecule, the relative viability (NCI-H322M; first compound 5 µM) was 1.19, the relative viability (NCI-H322M; first compound 15.81 µM) was 1.2 and the relative viability (NCI-H322M; first compound 50 µM) was 1.27. It also gave a relative viability (NCI-H322M; first compound 158.11 µM) of 1.31, a relative viability (NCI-H322M; first compound 500 µM) of 0.908 and a relative viability (NCI-H520; first compound 5 µM) of 0.756. For the same molecule, the relative viability (NCI-H520; first compound 15.81 µM) was 0.421, the relative viability (NCI-H520; first compound 50 µM) was 0.858 and the relative viability (NCI-H520; first compound 158.11 µM) was 0.169. It also gave a relative viability (NCI-H520; first compound 500 µM) of 0.0871, a relative viability (NCI-H647; first compound 5 µM) of 0.861 and a relative viability (NCI-H647; first compound 15.81 µM) of 0.8. The relative viability (NCI-H647; first compound 50 µM) was 0.962, the relative viability (NCI-H647; first compound 158.11 µM) was 0.0678 and the relative viability (NCI-H647; first compound 500 µM) was 0.0092. It also gave a relative viability (NCI-H661; first compound 5 µM) of 0.749, a relative viability (NCI-H661; first compound 15.81 µM) of 0.66 and a relative viability (NCI-H661; first compound 50 µM) of 0.85. It also gave a relative viability (NCI-H661; first compound 158.11 µM) of 0.709, a relative viability (NCI-H661; first compound 500 µM) of 0.709 and a relative viability (NCI-H838; first compound 5 µM) of 0.867. It also gave a relative viability (NCI-H838; first compound 15.81 µM) of 0.702, a relative viability (NCI-H838; first compound 50 µM) of 1.02 and a relative viability (NCI-H838; first compound 158.11 µM) of 0.425. It also gave a relative viability (NCI-H838; first compound 500 µM) of 0.0658.
